Tests used:
[1] = system: β-Glucosidase derived from A. niger; assay: Reactivity toward various isoflavone glycosides (HPLC); type: biochemical, Aspergillus niger; design: glucoside / aglycon: unit not given here; conditions: 55 °C, pH 4.0
Description: Diglycosidase was diluted with an acetate buffer of pH 4.0 to prepare a 0.75 AU/mL enzyme solution. As references, a similar operation was conducted using β-glucosidase (manufactured by Fluka) derived from Aspergillus niger, β-glucosidase (manufactured by Sigma) derived from almond, β-xylosidase derived from pectinase G (manufactured by Amano Enzyme Inc.). Each of purified products of isoflavone glycosides (glycitin, acetylglycitin, malonylglycitin, daidzin, acetyldaidzin, malonyldaidzin, genistin, acetylgenistin, malonylgenistin, all manufactured by Nacalai Tesque, Inc.) was dissolved in methanol to prepare each 2 mM substrate solution. The reaction was carried out by mixing 10 μL of a substrate solution, 200 μL of 20 mM acetate buffer (pH 4.0), and 40 μL of each purified enzyme solution at a total liquid volume of 250 μL. The reaction was carried out at 55° C. and isolation of an aglycon isoflavone from an isoflavone glycoside in the reaction mixture was detected by HLPC at 0, 1, 3, and 6 hours of the reaction.
To the reaction mixture was added 700 μL of ethanol, followed by stirring and ultrasonication. After centrifugation at 15,000 rpm and 4° C. for 10 minutes, the supernatant was filtered through a filter and then the filtrate was applied to HPLC.
The isoflavone glycoside and aglycon isoflavone contained in the filtrate was separated and detected by a high performance liquid chromatography (HPLC, Shimadzu CLASS LC-10 system) using TOSOH TSK gel ODS-80TM column (manufactured by Tosoh Corporation). […] The absorbance at 260 nm was detected by a UV detector (Shimadzu, SPD-10AV). Using purified products (manufactured by Nacalai Tesque, Inc.) of the above isoflavone glycosides and aglycon isoflavones, the isoflavone glycoside and aglycon isoflavone were quantitatively determined according to a calibration curve method. By the way, unless otherwise stated, the measuring conditions of HPLC herein mean those described in the example.

Crude diglycosidase = assay: Examination of substrate concentration in the conversion into isoflavone aglycons by diglycosidase using soybean materials; type: biochemical, Penicillium multicolor IAM7153; conditions: for Decomposition efficiency: ratio of each glycoside/aglycon within its isoflavone family: roasted soy flour;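 on Decomposition efficiency: ratio of each glycoside/aglycon within its isoflavone family: percent of the isoflavone family total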
How it was run: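 Reaction at 55° C, shaken, pH 4.0 (20 mM acetate), using crude diglycosidase from a 1.88 AU/mL enzyme solution on soy flour, soymilk, defatted soybean or soy protein concentrate at 2, 5, 10, 20 or 30% (w/v). Isoflavone aglycons quantified by HPLC of ethanol extracts at 0, 1, 3, 6 h.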

[2] = substrate concentration 2%, heat treatment of enzyme no, reaction time 0 h
[3] = substrate concentration 2%, heat treatment of enzyme no, reaction time 1 h
[4] = substrate concentration 2%, heat treatment of enzyme no, reaction time 3 h
[5] = substrate concentration 2%, heat treatment of enzyme no, reaction time 6 h
[6] = substrate concentration 2%, heat treatment of enzyme yes, reaction time 6 h
[7] = substrate concentration 5%, heat treatment of enzyme no, reaction time 0 h
[8] = substrate concentration 5%, heat treatment of enzyme no, reaction time 1 h
[9] = substrate concentration 5%, heat treatment of enzyme no, reaction time 3 h
[10] = substrate concentration 5%, heat treatment of enzyme no, reaction time 6 h
[11] = substrate concentration 5%, heat treatment of enzyme yes, reaction time 6 h
[12] = substrate concentration 10%, heat treatment of enzyme no, reaction time 0 h
[13] = substrate concentration 10%, heat treatment of enzyme no, reaction time 1 h
[14] = substrate concentration 10%, heat treatment of enzyme no, reaction time 3 h
[15] = substrate concentration 10%, heat treatment of enzyme no, reaction time 6 h
[16] = substrate concentration 10%, heat treatment of enzyme yes, reaction time 6 h

CC(=O)OC[C@H]1O[C@@H](Oc2ccc3c(=O)c(-c4ccc(O)cc4)coc3c2)[C@H](O)[C@@H](O)[C@@H]1O [acetyldaidzin, 6″-O-acetyldaidzin] was tested, and the aglycon ([1]; Reaction time 0 h) was 0, the glucoside ([1]; Reaction time 0 h) was 100 and the aglycon ([1]; Reaction time 1 h) was 4.4. It also gave a glucoside ([1]; Reaction time 1 h) of 95.6, an aglycon ([1]; Reaction time 3 h) of 6.4 and a glucoside ([1]; Reaction time 3 h) of 93.6. For the same compound, the aglycon ([1]; Reaction time 6 h) was 9, the glucoside ([1]; Reaction time 6 h) was 91 and the “Decomposition efficiency: ratio of each glycoside/aglycon within its isoflavone family” value (Crude diglycosidase; [2]) was 47.6%. The “Decomposition efficiency: ratio of each glycoside/aglycon within its isoflavone family” value (Crude diglycosidase; [3]) was 9.2%, the “Decomposition efficiency: ratio of each glycoside/aglycon within its isoflavone family” value (Crude diglycosidase; [4]) was “not detected” and the “Decomposition efficiency: ratio of each glycoside/aglycon within its isoflavone family” value (Crude diglycosidase; [5]) was “not detected”. The “Decomposition efficiency: ratio of each glycoside/aglycon within its isoflavone family” value (Crude diglycosidase; [6]) was 47.2%, the “Decomposition efficiency: ratio of each glycoside/aglycon within its isoflavone family” value (Crude diglycosidase; [7]) was 46.1% and the “Decomposition efficiency: ratio of each glycoside/aglycon within its isoflavone family” value (Crude diglycosidase; [8]) was 20.9%. For the same compound, the “Decomposition efficiency: ratio of each glycoside/aglycon within its isoflavone family” value (Crude diglycosidase; [9]) was 12.5%, the “Decomposition efficiency: ratio of each glycoside/aglycon within its isoflavone family” value (Crude diglycosidase; [10]) was 6.8% and the “Decomposition efficiency: ratio of each glycoside/aglycon within its isoflavone family” value (Crude diglycosidase; [11]) was 46.1%. For the same compound, the “Decomposition efficiency: ratio of each glycoside/aglycon within its isoflavone family” value (Crude diglycosidase; [12]) was 38.5%, the “Decomposition efficiency: ratio of each glycoside/aglycon within its isoflavone family” value (Crude diglycosidase; [13]) was 30.5% and the “Decomposition efficiency: ratio of each glycoside/aglycon within its isoflavone family” value (Crude diglycosidase; [14]) was 21.5%. The “Decomposition efficiency: ratio of each glycoside/aglycon within its isoflavone family” value (Crude diglycosidase; [15]) was 14.9%, the “Decomposition efficiency: ratio of each glycoside/aglycon within its isoflavone family” value (Crude diglycosidase; [16]) was 47.7% and the “Decomposition efficiency: ratio of each glycoside/aglycon within its isoflavone family” value (Crude diglycosidase; substrate concentration 20%, heat treatment of enzyme no, reaction time 0 h) was 46.1%. The “Decomposition efficiency: ratio of each glycoside/aglycon within its isoflavone family” value (Crude diglycosidase; substrate concentration 20%, heat treatment of enzyme no, reaction time 1 h) was 40.7%, the “Decomposition efficiency: ratio of each glycoside/aglycon within its isoflavone family” value (Crude diglycosidase; substrate concentration 20%, heat treatment of enzyme no, reaction time 3 h) was 32.6% and the “Decomposition efficiency: ratio of each glycoside/aglycon within its isoflavone family” value (Crude diglycosidase; substrate concentration 20%, heat treatment of enzyme no, reaction time 6 h) was 25.1%. The “Decomposition efficiency: ratio of each glycoside/aglycon within its isoflavone family” value (Crude diglycosidase; substrate concentration 20%, heat treatment of enzyme yes, reaction time 6 h) was 47.2%, the “Decomposition efficiency: ratio of each glycoside/aglycon within its isoflavone family” value (Crude diglycosidase; substrate concentration 30%, heat treatment of enzyme no, reaction time 0 h) was 47.6% and the “Decomposition efficiency: ratio of each glycoside/aglycon within its isoflavone family” value (Crude diglycosidase; substrate concentration 30%, heat treatment of enzyme no, reaction time 1 h) was 46.4%. For the same compound, the “Decomposition efficiency: ratio of each glycoside/aglycon within its isoflavone family” value (Crude diglycosidase; substrate concentration 30%, heat treatment of enzyme no, reaction time 3 h) was 42.6%, the “Decomposition efficiency: ratio of each glycoside/aglycon within its isoflavone family” value (Crude diglycosidase; substrate concentration 30%, heat treatment of enzyme no, reaction time 6 h) was 34.3% and the “Decomposition efficiency: ratio of each glycoside/aglycon within its isoflavone family” value (Crude diglycosidase; substrate concentration 30%, heat treatment of enzyme yes, reaction time 6 h) was 47.4%. For the same compound, the “Decomposition efficiency of daidzin family in defatted soybean” value (Crude diglycosidase; [2]) was “not detected”, the “Decomposition efficiency of daidzin family in defatted soybean” value (Crude diglycosidase; [3]) was “not detected” and the “Decomposition efficiency of daidzin family in defatted soybean” value (Crude diglycosidase; [4]) was “not detected”. The “Decomposition efficiency of daidzin family in defatted soybean” value (Crude diglycosidase; [5]) was “not detected”, the “Decomposition efficiency of daidzin family in defatted soybean” value (Crude diglycosidase; [6]) was “not detected” and the “Decomposition efficiency of daidzin family in defatted soybean” value (Crude diglycosidase; [7]) was “not detected”. The “Decomposition efficiency of daidzin family in defatted soybean” value (Crude diglycosidase; [8]) was “not detected”, the “Decomposition efficiency of daidzin family in defatted soybean” value (Crude diglycosidase; [9]) was “not detected” and the “Decomposition efficiency of daidzin family in defatted soybean” value (Crude diglycosidase; [10]) was “not detected”. For the same compound, the “Decomposition efficiency of daidzin family in defatted soybean” value (Crude diglycosidase; [11]) was “not detected”, the “Decomposition efficiency of daidzin family in defatted soybean” value (Crude diglycosidase; [12]) was “not detected” and the “Decomposition efficiency of daidzin family in defatted soybean” value (Crude diglycosidase; [13]) was “not detected”. The “Decomposition efficiency of daidzin family in defatted soybean” value (Crude diglycosidase; [14]) was “not detected”, the “Decomposition efficiency of daidzin family in defatted soybean” value (Crude diglycosidase; [15]) was “not detected” and the “Decomposition efficiency of daidzin family in defatted soybean” value (Crude diglycosidase; [16]) was “not detected”.
